Source: patent US20070275911A1, “Targeted Drug-Formaldehyde Conjugates and Methods of Making and Using the Same” (priority 2003, published 2007)
Read-outs that look alike come from different tables or passages of the source.

Tests used:
Rtx-6 cells = experiment: Growth inhibition of Rtx-6 cells, 4 h treatment; format: cell-based
Method: Effect of DOX-TEG-TAM on AEBS-negative Rtx-6 breast cancer cells: Rtx-6 cells, kindly provided by Dr. Marc Poirot (Toulouse, France), were evaluated as an AEBS-negative control cell line. […] The Rtx-6 cells were utilized to determine the effect of the absence of AEBS on the cytotoxicity and uptake of DOX, DOXSF, and DOX-TEG-TAM.
The IC50's are compared in Table 6 with those previously determined for MCF-7, MCF-7/Adr, MDA-MB-231 and MDA-MB-435 cells. The concentrations inhibiting 50% of cell growth following 4 h treatment with DOX, DOXSP, and DOX-TEG-TAM were 200 nM, 60 nM, and 70 nM, respectively.
Growth inhibition of Rtx-6 cells: The concentration inhibiting half the growth (IC50) was determined as previously described with minor modifications.

MCF-7/ADR = experiment: Cytotoxicity, crystal violet colony assay (Example 1); format: cell-based, human; details: for IC50: 4 h treatment, read-out: IC50 cancer cell growth inhibition
Method: (§1) This cell suspension was dispensed in 200 μL aliquots into 96-well tissue culture plates. Plates were then incubated for 24 h at 37° C. in a humidified atmosphere of 5% CO2 and 95% air. The medium was replaced with 180 μL of growth medium prior to addition of the prodrug. Doxsaliform was dissolved in DMSO containing 1% glacial acetic acid at concentrations ranging from 1 mM to 10 mM and sterile-filtered through a 0.45 μm nylon centrifuge filter. The concentration was then corrected by measuring the solution absorbance at 480 nm (ε=11 500 L/(mol·cm). Serial dilutions (1:10) were made in sterile DMSO to yield seven solutions of decreasing drug concentration at 100× the respective working concentrations. The resulting solutions were individually diluted 1:10 in RPMI 1640; 20 μL of the resulting 10× solution was immediately added to the appropriate lane of cells. Additionally, two lanes were treated with 20 μL growth medium containing 10% sterile DMSO and one lane was treated with 200 μL of 1.5 M Tris buffer. The cells were incubated at 37° C. for 4 h, at which time the drug solutions were replaced with 200 μL of fresh growth medium. […] The extent of colony formation was determined using a crystal violet staining assay.
(§2) The biological activities of several of the N-Mannich base derivatives were determined by their in vitro cytotoxicity against MCF-7 and MCF-7/ADR human breast cancer derived cell lines. While MCF-7 cells are sensitive to doxorubicin, the MCF-7/ADR cell line is an MCF-7 derivative which is characterized by its marked resistance to doxorubicin.

MCF-7 = experiment: as above; format: cell-based, human; details: for IC50: MCF-7, 4 h treatment, read-out: IC50 cancer cell growth inhibition
Method: as §1, §2

[1] = tested on: PC-3 prostate cancer cells; experiment: as above; format: cell-based; details: for IC50: PC-3, 4 h treatment, read-out: IC50 cancer cell growth inhibition
[2] = target: T1, ανβ3 integrin present on viable MDA-MB-435 cells (Homo sapiens, UniProt P05106+P06756); experiment: Vitronectin cell adhesion (competition) assay; format: cell-based; details: MDA-MB-435 cell binding to vitronectin, 500 μM Mn2+; read-out: IC50 for inhibition of cell binding
T1 construct: endogenous in cells
Description: The data are presented as the mean fluorescence for each condition with the background, drug-free cell fluorescence subtracted.

MDA-MB-435 cells [3] = experiment: Growth inhibition assay (Example 6); format: cell-based, human; details: read-out: IC50 for inhibition of cell growth (nM), treatment time
Method: […] Cells were quantified via measuring crystal violet staining or cellular metabolism of MTT. For every experiment, each condition was performed in hexuplicate; experiments were performed at least twice.
Cancer cell growth inhibition: acyclic-RGD-4C-DOXSF and cyclic-(N-Me-VRGDf-NH)-DOXSF were also assayed for their ability to inhibit growth of MDA-MB-435 cells relative to DOX and DOXSF. Cells treated in cell culture plates and non-treated (-control) cells were allowed to grow to near confluency, and then quantified via measuring crystal violet staining or cellular metabolism of MTT. […] Earlier control experiments established that the miniscule amounts of formaldehyde that would be released even from complete hydrolysis of the conjugate would contribute nothing to the observed growth inhibition. Conjugation of cytotoxic drugs to triggers and targeting groups often causes a drop in cytotoxicity.

MDA-MB-435 cells [4] = experiment: Uptake of DOX, DOXSF and acyclic-RGD-4C-DOXSF by flow cytometry; format: cell-based, human; details: for RFU with 100 nM drug / RFU with 500 nM drug / RFU with 1000 nM drug: no additional Mn2+
Method: MDA-MB435 breast cancer cells in log phase growth were dissociated with trypsin-EDTA, counted, resuspended in media at 2×10^5 cells/mL, and plated into six-well plates (5.0×10^5 cells/well) and allowed to adhere overnight. Drug solutions of DOX, DOXSF, and ayclic-RGD-4C-DOXSF were prepared in DMSO with 1% acetic acid at 50 μM. Before treatment with drug, cell media was removed, cells were washed with HBSS (0.5 mL), and then fresh cell media, with or without 500 μM Mn^2+, was placed into the wells (2 mL). […] For each time point, the cell media was removed, cells were washed with HBSS, trypsinized, and trypsinization was quenched with 5 mL of cell media at 4° C. Cells were pelleted by centrifugation at 200 g for 5 min at 10° C. The supernatant was decanted, and the cells were resuspended in 5 mL of D-PBS at 4° C., repelleted, resuspended in 2 mL of D-PBS at 4° C., and placed on ice. […] The amount of drug uptake was measured by flow cytometry. Cells were analyzed with excitation at 488 nm (15 mW Ar ion laser), with emision monitored between 570 and 600 nm. Instrument settings were optimized for the cell line and held constant for all experiments; 10,000 cells were analyzed for each sample's anthracycline fluorescence. The data are presented as the mean fluorescence for each condition divided by the background, drug-free mean fluorescence.
Concentration of targeted drug relative to DOX and DOXSF in cells was determined from emission of the DOX fluorophore.

Row | Structure (SMILES) | IC50 (Rtx-6 cells) | IC50 [1] | IC50 [2] | RFU with 100 nM drug (MDA-MB-435 cells [4]; 30 min) | RFU with 500 nM drug (MDA-MB-435 cells [4]; 30 min) | RFU with 1000 nM drug (MDA-MB-435 cells [4]; 30 min) | RFU with 100 nM drug (MDA-MB-435 cells [4]; 4 h) | RFU with 500 nM drug (MDA-MB-435 cells [4]; 4 h) | RFU with 1000 nM drug (MDA-MB-435 cells [4]; 4 h) | further results
1 | CC/C(=C(/c1ccc(O)cc1)c1ccc(OCCN(C)CCOCCOCCO/N=C/c2ccc(O)c(C(=O)NCN[C@H]3C[C@H](O[C@H]4C[C@](O)(C(=O)CO)Cc5c(O)c6c(c(O)c54)C(=O)c4c(OC)cccc4C6=O)O[C@@H](C)[C@H]3O)c2)cc1)c1ccccc1 [11c, E/Z-N-(2-Hydroxy-5-{[2-(2-{2-[(2-{4-[1-(4-hydroxy-phenyl)-2-phenyl-but-1-enyl]-phenoxy}-ethyl)-methyl-amino]-ethoxy}-ethoxy)-ethoxyimino]-methyl}-benzamide)-doxorubicin] | 70 nM |  |  |  |  |  |  |  |  | 
2 | COc1cccc2c1C(=O)c1c(O)c3c(c(O)c1C2=O)C[C@@](O)(C(=O)CO)C[C@@H]3O[C@H]1C[C@H](N)[C@H](O)[C@H](C)O1 [doxorubicin, reference compound] | 200 nM | 300 nM | > 10000 nM | 1.23 RFU | 2.12 RFU | 3.21 RFU | 1.90 RFU | 5.88 RFU | 12.03 RFU | IC50 (MCF-7/ADR; Homo sapiens, NCI/ADR-RES): 8000 nM; IC50 (MCF-7; Homo sapiens, MCF7): 300 nM; IC50 (MDA-MB-435 cells [3]; Homo sapiens, MDA-MB-435, 20 min, 20 min treatment): 800 nM; IC50 (MDA-MB-435 cells [3]; Homo sapiens, MDA-MB-435, 1 h treatment): 300 nM; IC50 (MDA-MB-435 cells [3]; Homo sapiens, MDA-MB-435, 4 h treatment): 120 nM; fold uptake more than acyclic-RGD-4C-DOXSF (MDA-MB-435 cells [4]; 1 h drug treatment): 3 fold
3 | COc1cccc2c1C(=O)c1c(O)c3c(c(O)c1C2=O)C[C@@](O)(C(=O)CO)C[C@@H]3O[C@H]1C[C@H](NCNC(=O)c2ccccc2O)[C@H](O)[C@H](C)O1 [doxsaliform, N-(2-Hydroxybenzamido-methyl)-doxorubicin] | 60 nM | 80 nM | > 10000 nM | 1.88 RFU | 5.55 RFU | 9.23 RFU | 3.23 RFU | 13.25 RFU | 24.51 RFU | IC50 (MCF-7/ADR): 800 nM; DOX/doxsaliform (MCF-7/ADR; fold increase in cytotoxicity, 4 h drug treatment): 10; IC50 (MCF-7): 80 nM; DOX/doxsaliform (MCF-7; MCF-7, fold increase in cytotoxicity, 4 h drug treatment): 4; DOX/doxsaliform ([1]; PC-3, fold increase in cytotoxicity, 4 h drug treatment): 4; IC50 (MDA-MB-435 cells [3]; 4 h treatment): 50 nM; fold uptake higher than acyclic-RGD-4C-DOXSF and DOX (MDA-MB-435 cells [4]; 4 h, 500 nM): 2 fold
